Target: T1, soybean lipoxygenase (LOX) (Glycine max, UniProt P08170)
T1 construct: gene LOX1.1
T1 sequence (P08170 1-839): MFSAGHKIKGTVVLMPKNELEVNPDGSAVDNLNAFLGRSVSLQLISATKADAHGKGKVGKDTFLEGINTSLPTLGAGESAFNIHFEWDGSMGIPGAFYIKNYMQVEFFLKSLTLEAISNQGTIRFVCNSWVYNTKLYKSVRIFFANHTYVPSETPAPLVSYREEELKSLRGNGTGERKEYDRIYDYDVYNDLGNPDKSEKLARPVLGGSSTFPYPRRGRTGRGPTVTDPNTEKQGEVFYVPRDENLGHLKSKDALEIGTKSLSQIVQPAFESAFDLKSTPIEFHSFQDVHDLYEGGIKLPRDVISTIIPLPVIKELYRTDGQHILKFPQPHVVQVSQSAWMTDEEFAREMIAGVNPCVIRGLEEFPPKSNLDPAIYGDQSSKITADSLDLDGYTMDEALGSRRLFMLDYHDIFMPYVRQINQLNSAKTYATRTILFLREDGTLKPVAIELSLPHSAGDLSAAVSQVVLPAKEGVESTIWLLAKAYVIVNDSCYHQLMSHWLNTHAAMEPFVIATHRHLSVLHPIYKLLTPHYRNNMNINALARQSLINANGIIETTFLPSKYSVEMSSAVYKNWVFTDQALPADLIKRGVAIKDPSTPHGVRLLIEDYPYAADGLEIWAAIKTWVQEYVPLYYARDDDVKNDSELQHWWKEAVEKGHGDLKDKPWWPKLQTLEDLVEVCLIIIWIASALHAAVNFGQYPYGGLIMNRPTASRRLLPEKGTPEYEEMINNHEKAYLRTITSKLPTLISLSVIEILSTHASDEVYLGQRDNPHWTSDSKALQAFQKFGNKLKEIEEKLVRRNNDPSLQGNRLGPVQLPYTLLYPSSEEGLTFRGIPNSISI
Experiment: UV assay at […] nm, sodium linoleate oxidation, pH […]
Assay type: biochemical

Structure (SMILES) | IC50 [µM]
O=C1C(=NNC(=S)Nc2ccccc2)c2cc(F)ccc2N1CN1CCCCC1 [FMp] | 54
COc1ccc2c(c1)/C(=N/NC(=S)Nc1ccccc1)C(=O)N2 [M] | 60.5
